Read-outs that look alike come from different tables or passages of the source.
Tests used:
[1] = system: old rats with periodic hindlimb movements; details: daily treatment; 3 consecutive nights beginning 7 days after onset; vs vehicle-treated rats
Method: In a group of old rats 16-20 months, sleep-wake behavior is recorded and hindlimb movements are detected by means of a magneto-inductive device during two 12-h light periods (Baier P. C. et al., Assessment of spontaneously occurring periodic limb movements in sleep in the rat, J. Neurol. Sci. 2002; 198(1-2): 71-77). Periodic hindlimb movements (PHLM) during nonrapid eye movement sleep (NREM) are identified according to modified human criteria in some of the rats, which are then selected for the rasagiline study. Half the rats are treated daily with rasagiline while the other half receive vehicle. Incidence of PHLM is determined for 3 consecutive nights, beginning 7 days after onset of treatment.

[2] = system: RLS subjects; details: for Optimal Sleep (Absolute Change) Mean / Optimal Sleep (Absolute Change) Median / Optimal Sleep (Percent Change) Mean / Optimal Sleep (Percent Change) Median / Optimal Sleep Scale Mean / Optimal Sleep Scale Median / Sleep Quantity (Absolute Change) Mean / Sleep Quantity (Absolute Change) Median / Sleep Quantity (Percent Change) Mean / Sleep Quantity (Percent Change) Median / Sleep Quantity (raw score) Mean / Sleep Quantity (raw score) Median / Sleep Snoring (Percent Change) Mean / Sleep Snoring (Percent Change) Median / Short of Breath Scale Mean / Short of Breath Scale Median / Sleep Adequacy (Absolute Change) Mean / Sleep Adequacy (Absolute Change) Median / Sleep Adequacy (Percent Change) Mean / Sleep Adequacy (Percent Change) Median / Sleep Adequacy Mean / Sleep Adequacy Median / Sleep Disturbance (Absolute Change) Mean / Sleep Disturbance (Absolute Change) Median / Sleep Disturbance (Percent Change) Mean / Sleep Disturbance (Percent Change) Median / Sleep Disturbance Scale Mean / Sleep Disturbance Scale Median / Sleep Problems Index I (Absolute Change) Mean / Sleep Problems Index I (Absolute Change) Median / Sleep Problems Index I (Percent Change) Mean / Sleep Problems Index I (Percent Change) Median / Sleep Problems Index I Mean / Sleep Problems Index I Median / Sleep Problems Index II (Absolute Change) Mean / Sleep Problems Index II (Absolute Change) Median / Sleep Problems Index II (Percent Change) Mean / Sleep Problems Index II (Percent Change) Median / Sleep Problems Index II Mean / Sleep Problems Index II Median / Sleep Short of Breath (Absolute Change) Mean / Sleep Short of Breath (Absolute Change) Median / Sleep Snoring (Absolute Change) Mean / Sleep Snoring (Absolute Change) Median / Sleep Somnolence (Absolute Change) Mean / Sleep Somnolence (Absolute Change) Median / Sleep Somnolence (Percent Change) Mean / Sleep Somnolence (Percent Change) Median / Snoring Scale Mean / Snoring Scale Median / Somnolence Scale Mean / Somnolence Scale Median: rasagiline 1 mg/day oral
Method: (§1) This was the first clinical study in which rasagiline was administered to RLS subjects. The dosage regimen of 1 mg/day rasagiline was chosen based on the optimal dosage regimen for the symptomatic treatment of PD. […] Therefore, in the event that a subject could not tolerate the 1 mg daily dose of rasagiline, a daily dose of 0.5 mg rasagiline was permitted. Rasagiline was administered orally as a tablet. Both the 1 mg and 0.5 mg rasagiline tablets were beveled round tablets, flat, white to off-white, scored on one side, plain on the other side. Teva Pharmaceutical Industries Ltd. was responsible for the manufacture and primary packaging of study medications according to current Good Manufacturing Practice (cGMP) principles and guidelines applicable to investigational medicinal products.
The Sleep Scale is a 12-item scale that provides a comprehensive view across almost all dimensions of sleep including daytime somnolence, sleep disturbance, sleep adequacy and sleep quantity. The investigator scored subjects on this scale at the baseline and Week 4, and 8 visits. The change from baseline to each post-baseline study visit was calculated as a secondary efficacy endpoint. (Hays, R. D. & Steward, A. L. (1992). Sleep measures. In A. L. Stewart & J. E. Ware (eds.), Measuring functioning and well-being: The Medical Outcomes Study approach (pp. 235-259), Durham, NC: Duke University Press.
N is the number of participants in the study. A low score indicates the absence of problems and a high score indicates a very severe problem.

[3] = system: RLS subjects; details: for CGI-I Total Mean / CGI-I Total Median: scale 1-7, rasagiline 1 mg/day oral
Method: as §1
Subjects were scored on this scale at weeks 2, 4, and 8. The mean score at each of these time points was calculated as a secondary efficacy endpoint.

[4] = system: early Parkinson's disease subjects; details: rasagiline-treated subjects; cited from earlier work
[5] = by eight weeks, remaining subject

C#CCN[C@@H]1CCc2ccccc21 [rasagiline, R-(+)-N-propargyl-1-aminoindan]
incidence of periodic hindlimb movements (PHLM) [1]: significantly fewer | Optimal Sleep (Absolute Change) Mean ([2]; VISIT WEEK 4, N=1): 0.00 | Optimal Sleep (Absolute Change) Median ([2]; VISIT WEEK 4, N=1): 0.00 | Optimal Sleep (Percent Change) Mean ([2]; VISIT WEEK 4, N=1): 0.00% | Optimal Sleep (Percent Change) Median ([2]; VISIT WEEK 4, N=1): 0.00% | Optimal Sleep Scale Mean ([2]; VISIT WEEK 4, N=1): 1.00 | Optimal Sleep Scale Median ([2]; VISIT WEEK 4, N=1): 1.00 | Sleep Quantity (Absolute Change) Mean ([2]; VISIT WEEK 4, N=1): 0.00 | Sleep Quantity (Absolute Change) Median ([2]; VISIT WEEK 4, N=1): 0.00 | Sleep Quantity (Percent Change) Mean ([2]; VISIT WEEK 4, N=1): 0.00% | Sleep Quantity (Percent Change) Median ([2]; VISIT WEEK 4, N=1): 0.00% | Sleep Quantity (raw score) Mean ([2]; VISIT WEEK 4, N=1): 7.00 | Sleep Quantity (raw score) Median ([2]; VISIT WEEK 4, N=1): 7.00 | Sleep Snoring (Percent Change) Mean ([2]; VISIT WEEK 4, N=1): 0.00% | Sleep Snoring (Percent Change) Median ([2]; VISIT WEEK 4, N=1): 0.00% | Short of Breath Scale Mean ([2]; VISIT WEEK 4, N=2): 0.00 | Short of Breath Scale Median ([2]; VISIT WEEK 4, N=2): 0.00 | Sleep Adequacy (Absolute Change) Mean ([2]; VISIT WEEK 4, N=2): 15.00 | Sleep Adequacy (Absolute Change) Median ([2]; VISIT WEEK 4, N=2): 15.00 | Sleep Adequacy (Percent Change) Mean ([2]; VISIT WEEK 4, N=2): 25.00% | Sleep Adequacy (Percent Change) Median ([2]; VISIT WEEK 4, N=2): 25.00% | Sleep Adequacy Mean ([2]; VISIT WEEK 4, N=2): 55.00 | Sleep Adequacy Median ([2]; VISIT WEEK 4, N=2): 55.00 | Sleep Disturbance (Absolute Change) Mean ([2]; VISIT WEEK 4, N=2): −7.50 | Sleep Disturbance (Absolute Change) Median ([2]; VISIT WEEK 4, N=2): −7.50 | Sleep Disturbance (Percent Change) Mean ([2]; VISIT WEEK 4, N=2): −20.00% | Sleep Disturbance (Percent Change) Median ([2]; VISIT WEEK 4, N=2): −20.00% | Sleep Disturbance Scale Mean ([2]; VISIT WEEK 4, N=2): 33.75 | Sleep Disturbance Scale Median ([2]; VISIT WEEK 4, N=2): 33.75 | Sleep Problems Index I (Absolute Change) Mean ([2]; VISIT WEEK 4, N=2): −6.67 | Sleep Problems Index I (Absolute Change) Median ([2]; VISIT WEEK 4, N=2): −6.67 | Sleep Problems Index I (Percent Change) Mean ([2]; VISIT WEEK 4, N=2): −40.00% | Sleep Problems Index I (Percent Change) Median ([2]; VISIT WEEK 4, N=2): −40.00% | Sleep Problems Index I Mean ([2]; VISIT WEEK 4, N=2): 26.67 | Sleep Problems Index I Median ([2]; VISIT WEEK 4, N=2): 26.67 | Sleep Problems Index II (Absolute Change) Mean ([2]; VISIT WEEK 4, N=2): −6.67 | Sleep Problems Index II (Absolute Change) Median ([2]; VISIT WEEK 4, N=2): −6.67 | Sleep Problems Index II (Percent Change) Mean ([2]; VISIT WEEK 4, N=2): 24.00% | Sleep Problems Index II (Percent Change) Median ([2]; VISIT WEEK 4, N=2): −24.00% | Sleep Problems Index II Mean ([2]; VISIT WEEK 4, N=2): 33.89 | Sleep Problems Index II Median ([2]; VISIT WEEK 4, N=2): 33.89 | Sleep Short of Breath (Absolute Change) Mean ([2]; VISIT WEEK 4, N=2): 0.00 | Sleep Short of Breath (Absolute Change) Median ([2]; VISIT WEEK 4, N=2): 0.00 | Sleep Snoring (Absolute Change) Mean ([2]; VISIT WEEK 4, N=2): 0.00 | Sleep Snoring (Absolute Change) Median ([2]; VISIT WEEK 4, N=2): 0.00 | Sleep Somnolence (Absolute Change) Mean ([2]; VISIT WEEK 4, N=2): −0.00 | Sleep Somnolence (Absolute Change) Median ([2]; VISIT WEEK 4, N=2): −0.00 | Sleep Somnolence (Percent Change) Mean ([2]; VISIT WEEK 4, N=2): −20.00% | Sleep Somnolence (Percent Change) Median ([2]; VISIT WEEK 4, N=2): −20.00% | Snoring Scale Mean ([2]; VISIT WEEK 4, N=2): 40.00 | Snoring Scale Median ([2]; VISIT WEEK 4, N=2): 40.00 | Somnolence Scale Mean ([2]; VISIT WEEK 4, N=2): 40.00 | Somnolence Scale Median ([2]; VISIT WEEK 4, N=2): 40.00 | Optimal Sleep (Absolute Change) Mean ([2]; VISIT WEEK 8, N=1): 0.00 | Optimal Sleep (Absolute Change) Median ([2]; VISIT WEEK 8, N=1): 0.00 | Optimal Sleep (Percent Change) Mean ([2]; VISIT WEEK 8, N=1): 0.00% | Optimal Sleep (Percent Change) Median ([2]; VISIT WEEK 8, N=1): 0.00% | Optimal Sleep Scale Mean ([2]; VISIT WEEK 8, N=1): 1.00 | Optimal Sleep Scale Median ([2]; VISIT WEEK 8, N=1): 1.00 | Short of Breath Scale Mean ([2]; VISIT WEEK 8, N=1): 0.00 | Short of Breath Scale Median ([2]; VISIT WEEK 8, N=1): 0.00 | Sleep Adequacy (Absolute Change) Mean ([2]; VISIT WEEK 8, N=1): 40.00 | Sleep Adequacy (Absolute Change) Median ([2]; VISIT WEEK 8, N=1): 40.00 | Sleep Adequacy (Percent Change) Mean ([2]; VISIT WEEK 8, N=1): 66.67% | Sleep Adequacy (Percent Change) Median ([2]; VISIT WEEK 8, N=1): 66.67% | Sleep Adequacy Mean ([2]; VISIT WEEK 8, N=1): 100.00 | Sleep Adequacy Median ([2]; VISIT WEEK 8, N=1): 100.00 | Sleep Disturbance (Absolute Change) Mean ([2]; VISIT WEEK 8, N=1): −16.25 | Sleep Disturbance (Absolute Change) Median ([2]; VISIT WEEK 8, N=1): −16.25 | Sleep Disturbance (Percent Change) Mean ([2]; VISIT WEEK 8, N=1): −43.33% | Sleep Disturbance (Percent Change) Median ([2]; VISIT WEEK 8, N=1): −43.33% | Sleep Disturbance Scale Mean ([2]; VISIT WEEK 8, N=1): 21.25 | Sleep Disturbance Scale Median ([2]; VISIT WEEK 8, N=1): 21.25 | Sleep Problems Index I (Absolute Change) Mean ([2]; VISIT WEEK 8, N=1): −16.67 | Sleep Problems Index I (Absolute Change) Median ([2]; VISIT WEEK 8, N=1): −16.67 | Sleep Problems Index I (Percent Change) Mean ([2]; VISIT WEEK 8, N=1): −100.00% | Sleep Problems Index I (Percent Change) Median ([2]; VISIT WEEK 8, N=1): −100.00% | Sleep Problems Index I Mean ([2]; VISIT WEEK 8, N=1): 0.00 | Sleep Problems Index I Median ([2]; VISIT WEEK 8, N=1): 0.00 | Sleep Problems Index II (Absolute Change) Mean ([2]; VISIT WEEK 8, N=1): −16.11 | Sleep Problems Index II (Absolute Change) Median ([2]; VISIT WEEK 8, N=1): −16.11 | Sleep Problems Index II (Percent Change) Mean ([2]; VISIT WEEK 8, N=1): −58.00% | Sleep Problems Index II (Percent Change) Median ([2]; VISIT WEEK 8, N=1): −58.00% | Sleep Problems Index II Mean ([2]; VISIT WEEK 8, N=1): 11.67 | Sleep Problems Index II Median ([2]; VISIT WEEK 8, N=1): 11.67 | Sleep Quantity (Absolute Change) Mean ([2]; VISIT WEEK 8, N=1): 0.00 | Sleep Quantity (Absolute Change) Median ([2]; VISIT WEEK 8, N=1): 0.00 | Sleep Quantity (Percent Change) Mean ([2]; VISIT WEEK 8, N=1): 0.00% | Sleep Quantity (Percent Change) Median ([2]; VISIT WEEK 8, N=1): 0.00% | Sleep Quantity (raw score) Mean ([2]; VISIT WEEK 8, N=1): 7.00 | Sleep Quantity (raw score) Median ([2]; VISIT WEEK 8, N=1): 7.00 | Sleep Short of Breath (Absolute Change) Mean ([2]; VISIT WEEK 8, N=1): 0.00 | Sleep Short of Breath (Absolute Change) Median ([2]; VISIT WEEK 8, N=1): 0.00 | Sleep Snoring (Absolute Change) Mean ([2]; VISIT WEEK 8, N=1): 20.00 | Sleep Snoring (Absolute Change) Median ([2]; VISIT WEEK 8, N=1): 20.00 | Sleep Snoring (Percent Change) Mean ([2]; VISIT WEEK 8, N=1): 25.00% | Sleep Snoring (Percent Change) Median ([2]; VISIT WEEK 8, N=1): 25.00% | Sleep Somnolence (Absolute Change) Mean ([2]; VISIT WEEK 8, N=1): 0.00 | Sleep Somnolence (Absolute Change) Median ([2]; VISIT WEEK 8, N=1): 0.00 | Sleep Somnolence (Percent Change) Mean ([2]; VISIT WEEK 8, N=1): 0.00% | Sleep Somnolence (Percent Change) Median ([2]; VISIT WEEK 8, N=1): 0.00% | Snoring Scale Mean ([2]; VISIT WEEK 8, N=1): 100.00 | Snoring Scale Median ([2]; VISIT WEEK 8, N=1): 100.00 | Somnolence Scale Mean ([2]; VISIT WEEK 8, N=1): 13.33 | Somnolence Scale Median ([2]; VISIT WEEK 8, N=1): 13.33 | improvement in the Sleep Problems Index II [2, 5]: 58% | CGI-I Total Mean ([3]; VISIT WEEK 2, N=2): 3.50 | CGI-I Total Median ([3]; VISIT WEEK 2, N=2): 3.0 | CGI-I Total Mean ([3]; VISIT WEEK 4, N=2): 3.50 | CGI-I Total Median ([3]; VISIT WEEK 4, N=2): 3.50 | CGI-I Total Mean ([3]; VISIT WEEK 8, N=1): 1.00 | CGI-I Total Median ([3]; VISIT WEEK 8, N=1): 4.00 | RLS symptoms on the CGI-I rating scale [3, 5]: Very Much Improved | most commonly reported adverse events [4]: pain, headache and dizziness | side effects typical of dopaminergic medications (hallucinations, somnolence, edema, nausea, vomiting, diarrhea) [4]: infrequently reported

Reference: patent US12310929B2, “Use of rasagiline for the treatment of restless legs syndrome” (TEVA PHARMACEUTICAL INDUSTRIES, LTD., priority 2006, dated 2025)
